Measured values published in patent US20230085307A1, “PYRIDAZINONE COMPOUND AND HERBICIDE” (NISSAN CHEMICAL CORPORATION, priority 2019, published 2023).

Columns and labels:
green foxtail [1] = assay: Test Example 5: herbicidal effect by foliage application, plastic box (Table 20, symbol G); type: in vivo, green foxtail (Setaria viridis); details: foliage application, three weeks after application
How it was run: (§1)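 Plants were sown into sterilized diluvial soil under about 1.5 cm cover and kept in a greenhouse at 25° C. to 30° C. Fourteen days on, foliage received an even spray of the diluted emulsion. Herbicidal or crop effect was judged three weeks afterwards.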

redroot pigweed = assay: Test Example 4: herbicidal effect by soil treatment (Table 19, symbol N); type: in vivo, redroot pigweed (Amaranthus retroflexus)
How it was run: (§2)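 In this soil treatment, the formulated compound reached the seeds only through the soil: seeds were buried about 1.5 cm deep in sterilized diluvial soil, then the diluted emulsion was sprayed over the surface. After three weeks at 25° C. to 30° C. in a greenhouse, effects were graded on criteria from an earlier test.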

barnyard grass [2] = assay: Test Example 4: herbicidal effect by soil treatment (Table 19, symbol H); type: in vivo, barnyard grass (Echinochloa crus-galli)
How it was run: as §2

Chinese sprangletop = assay: Test Example 3: herbicidal effect by foliage application, Wagner pot (Table 18, symbol D); type: in vivo, chinese sprangletop (Leptochloa chinensis)
How it was run: (§3)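 Plants were sown in alluvial soil held under 0.1–0.5 cm standing water and grown 14 days in a greenhouse at 25–30 °C. An emulsifiable formulation, water-diluted to the set dose, was then sprayed onto the foliage, and effects were scored three weeks later using previously defined criteria.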

southern crabgrass [3] = assay: Test Example 4: herbicidal effect by soil treatment (Table 19, symbol F); type: in vivo, southern crabgrass (Digitaria ciliaris)
How it was run: as §2

barnyard grass [4] = assay: Test Example 3: herbicidal effect by foliage application, Wagner pot (Table 18, symbol H); type: in vivo, barnyard grass (Echinochloa crus-galli)
How it was run: as §3

blackgrass [5] = assay: Test Example 5: herbicidal effect by foliage application, plastic box (Table 20, symbol J); type: in vivo, blackgrass (Alopecurus myosuroides); details: foliage application, three weeks after application
How it was run: as §1

lambsquarters [6] = assay: Test Example 5: herbicidal effect by foliage application, plastic box (Table 20, symbol O); type: in vivo, lambsquarters (Chenopodium album); details: foliage application, three weeks after application
How it was run: as §1

windgrass [7] = assay: Test Example 4: herbicidal effect by soil treatment (Table 19, symbol L); type: in vivo, windgrass (Apera spica-venti)
How it was run: as §2

wild oat [8] = assay: Test Example 5: herbicidal effect by foliage application, plastic box (Table 20, symbol I); type: in vivo, wild oat (Avena fatua); details: foliage application, three weeks after application
How it was run: as §1

lambsquarters [9] = assay: Test Example 4: herbicidal effect by soil treatment (Table 19, symbol O); type: in vivo, lambsquarters (Chenopodium album)
How it was run: as §2

velvetleaf [10] = assay: Test Example 4: herbicidal effect by soil treatment (Table 19, symbol M); type: in vivo, velvetleaf (Abutilon theophrasti)
How it was run: as §2

windgrass [11] = assay: Test Example 5: herbicidal effect by foliage application, plastic box (Table 20, symbol L); type: in vivo, windgrass (Apera spica-venti); details: foliage application, three weeks after application
How it was run: as §1

chickweed = assay: Test Example 4: herbicidal effect by soil treatment (Table 19, symbol P); type: in vivo, common chickweed (Stellaria media)
How it was run: as §2

velvetleaf [12] = assay: Test Example 5: herbicidal effect by foliage application, plastic box (Table 20, symbol M); type: in vivo, velvetleaf (Abutilon theophrasti); details: foliage application, three weeks after application
How it was run: as §1

barnyard grass [13] = assay: Test Example 5: herbicidal effect by foliage application, plastic box (Table 20, symbol H); type: in vivo, barnyard grass (Echinochloa crus-galli); details: foliage application, three weeks after application
How it was run: as §1

persian speedwell [14] = assay: Test Example 5: herbicidal effect by foliage application, plastic box (Table 20, symbol R); type: in vivo, Persian speedwell (Veronica persica); details: foliage application, three weeks after application
How it was run: as §1

blackgrass [15] = assay: Test Example 4: herbicidal effect by soil treatment (Table 19, symbol J); type: in vivo, blackgrass (Alopecurus myosuroides)
How it was run: as §2

green foxtail [16] = assay: Test Example 4: herbicidal effect by soil treatment (Table 19, symbol G); type: in vivo, green foxtail (Setaria viridis)
How it was run: as §2

Italian ryegrass [17] = assay: Test Example 4: herbicidal effect by soil treatment (Table 19, symbol K); type: in vivo, Italian ryegrass (Lolium multiflorum)
How it was run: as §2

persian speedwell [18] = assay: Test Example 4: herbicidal effect by soil treatment (Table 19, symbol R); type: in vivo, Persian speedwell (Veronica persica)
How it was run: as §2

southern crabgrass [19] = assay: Test Example 5: herbicidal effect by foliage application, plastic box (Table 20, symbol F); type: in vivo, southern crabgrass (Digitaria ciliaris); details: foliage application, three weeks after application
How it was run: as §1

Italian ryegrass [20] = assay: Test Example 5: herbicidal effect by foliage application, plastic box (Table 20, symbol K); type: in vivo, Italian ryegrass (Lolium multiflorum); details: foliage application, three weeks after application
How it was run: as §1

rice flat sedge = assay: Test Example 3: herbicidal effect by foliage application, Wagner pot (Table 18, symbol E); type: in vivo, rice flat sedge (Cyperus iria)
How it was run: as §3

false cleavers = assay: Test Example 5: herbicidal effect by foliage application, plastic box (Table 20, symbol Q); type: in vivo, false cleavers (Galium spurium); details: foliage application, three weeks after application
How it was run: as §1

wild oat [21] = assay: Test Example 4: herbicidal effect by soil treatment (Table 19, symbol I); type: in vivo, wild oat (Avena fatua)
How it was run: as §2

[22] = amount of applied herbicide 147 g/ha
[23] = amount of applied herbicide 320 g/ha

Structure (SMILES): COc1ccccc1-c1oc2ccc(C)cc2c1-c1c(O)c(C)nn(C)c1=O [9-006]
- herbicidal effect on green foxtail (G) (green foxtail [1]; 147 g/ha): 0 (Herbicidal rate of 5% or less (almost no effect))
- N: redroot pigweed, herbicidal effect grade (redroot pigweed; [22]): 3 (Herbicidal rate of 40% or more and less than 70%)
- H: barnyard grass, herbicidal effect grade (barnyard grass [2]; [22]): 0 (Herbicidal rate of 5% or less (almost no effect))
- Herbicidal effect on D (Chinese sprangletop), foliage application (Chinese sprangletop; [22]): 0 (Herbicidal rate of 5% or less (almost no effect))
- F: southern crabgrass, herbicidal effect grade (southern crabgrass [3]; [22]): 0 (Herbicidal rate of 5% or less (almost no effect))
- Herbicidal effect on H (barnyard grass), foliage application (barnyard grass [4]; [22]): 1 (Herbicidal rate of 5% or more and less than 20%)
- herbicidal effect on blackgrass (J) (blackgrass [5]; 147 g/ha): 0 (Herbicidal rate of 5% or less (almost no effect))
- herbicidal effect on lambsquarters (O) (lambsquarters [6]; 147 g/ha): 0 (Herbicidal rate of 5% or less (almost no effect))
- L: windgrass, herbicidal effect grade (windgrass [7]; [22]): 0 (Herbicidal rate of 5% or less (almost no effect))
- herbicidal effect on wild oat (I) (wild oat [8]; 147 g/ha): 0 (Herbicidal rate of 5% or less (almost no effect))
- O: lambsquarters, herbicidal effect grade (lambsquarters [9]; [22]): 0 (Herbicidal rate of 5% or less (almost no effect))
- M: velvetleaf, herbicidal effect grade (velvetleaf [10]; [22]): 0 (Herbicidal rate of 5% or less (almost no effect))
- herbicidal effect on windgrass (L) (windgrass [11]; 147 g/ha): 0 (Herbicidal rate of 5% or less (almost no effect))
- P: chickweed, herbicidal effect grade (chickweed; [22]): 0 (Herbicidal rate of 5% or less (almost no effect))
- herbicidal effect on velvetleaf (M) (velvetleaf [12]; 147 g/ha): 2 (Herbicidal rate of 20% or more and less than 40%)
- herbicidal effect on barnyard grass (H) (barnyard grass [13]; 147 g/ha): 0 (Herbicidal rate of 5% or less (almost no effect))
- herbicidal effect on persian speedwell (R) (persian speedwell [14]; 147 g/ha): 0 (Herbicidal rate of 5% or less (almost no effect))
- J: blackgrass, herbicidal effect grade (blackgrass [15]; [22]): 0 (Herbicidal rate of 5% or less (almost no effect))
- G: green foxtail, herbicidal effect grade (green foxtail [16]; [22]): 0 (Herbicidal rate of 5% or less (almost no effect))
- K: Italian ryegrass, herbicidal effect grade (Italian ryegrass [17]; [22]): 0 (Herbicidal rate of 5% or less (almost no effect))
- R: persian speedwell, herbicidal effect grade (persian speedwell [18]; [22]): 0 (Herbicidal rate of 5% or less (almost no effect))
- herbicidal effect on southern crabgrass (F) (southern crabgrass [19]; 147 g/ha): 0 (Herbicidal rate of 5% or less (almost no effect))
- herbicidal effect on Italian ryegrass (K) (Italian ryegrass [20]; 147 g/ha): 0 (Herbicidal rate of 5% or less (almost no effect))
- Herbicidal effect on E (rice flat sedge), foliage application (rice flat sedge; [22]): 2 (Herbicidal rate of 20% or more and less than 40%)
- herbicidal effect on false cleavers (Q) (false cleavers; 147 g/ha): 3 (Herbicidal rate of 40% or more and less than 70%)
- I: wild oat, herbicidal effect grade (wild oat [21]; [22]): 0 (Herbicidal rate of 5% or less (almost no effect))

Structure (SMILES): COc1cc(F)ccc1-c1oc2ccc(C)cc2c1-c1c(O)c(C)nn(C)c1=O [9-009]
- herbicidal effect on green foxtail (G) (green foxtail [1]; 320 g/ha): 2 (Herbicidal rate of 20% or more and less than 40%)
- N: redroot pigweed, herbicidal effect grade (redroot pigweed; [23]): 0 (Herbicidal rate of 5% or less (almost no effect))
- H: barnyard grass, herbicidal effect grade (barnyard grass [2]; [23]): 3 (Herbicidal rate of 40% or more and less than 70%)
- Herbicidal effect on D (Chinese sprangletop), foliage application (Chinese sprangletop; [23]): 0 (Herbicidal rate of 5% or less (almost no effect))
- F: southern crabgrass, herbicidal effect grade (southern crabgrass [3]; [23]): 2 (Herbicidal rate of 20% or more and less than 40%)
- Herbicidal effect on H (barnyard grass), foliage application (barnyard grass [4]; [23]): 3 (Herbicidal rate of 40% or more and less than 70%)
- herbicidal effect on blackgrass (J) (blackgrass [5]; 320 g/ha): 0 (Herbicidal rate of 5% or less (almost no effect))
- herbicidal effect on lambsquarters (O) (lambsquarters [6]; 320 g/ha): 3 (Herbicidal rate of 40% or more and less than 70%)
- L: windgrass, herbicidal effect grade (windgrass [7]; [23]): 0 (Herbicidal rate of 5% or less (almost no effect))
- herbicidal effect on wild oat (I) (wild oat [8]; 320 g/ha): 2 (Herbicidal rate of 20% or more and less than 40%)
- O: lambsquarters, herbicidal effect grade (lambsquarters [9]; [23]): 3 (Herbicidal rate of 40% or more and less than 70%)
- M: velvetleaf, herbicidal effect grade (velvetleaf [10]; [23]): 0 (Herbicidal rate of 5% or less (almost no effect))
- herbicidal effect on windgrass (L) (windgrass [11]; 320 g/ha): 0 (Herbicidal rate of 5% or less (almost no effect))
- P: chickweed, herbicidal effect grade (chickweed; [23]): 0 (Herbicidal rate of 5% or less (almost no effect))
- herbicidal effect on velvetleaf (M) (velvetleaf [12]; 320 g/ha): 2 (Herbicidal rate of 20% or more and less than 40%)
- herbicidal effect on barnyard grass (H) (barnyard grass [13]; 320 g/ha): 3 (Herbicidal rate of 40% or more and less than 70%)
- herbicidal effect on persian speedwell (R) (persian speedwell [14]; 320 g/ha): 3 (Herbicidal rate of 40% or more and less than 70%)
- J: blackgrass, herbicidal effect grade (blackgrass [15]; [23]): 0 (Herbicidal rate of 5% or less (almost no effect))
- G: green foxtail, herbicidal effect grade (green foxtail [16]; [23]): 3 (Herbicidal rate of 40% or more and less than 70%)
- K: Italian ryegrass, herbicidal effect grade (Italian ryegrass [17]; [23]): 0 (Herbicidal rate of 5% or less (almost no effect))
- R: persian speedwell, herbicidal effect grade (persian speedwell [18]; [23]): 0 (Herbicidal rate of 5% or less (almost no effect))
- herbicidal effect on southern crabgrass (F) (southern crabgrass [19]; 320 g/ha): 2 (Herbicidal rate of 20% or more and less than 40%)
- herbicidal effect on Italian ryegrass (K) (Italian ryegrass [20]; 320 g/ha): 1 (Herbicidal rate of 5% or more and less than 20%)
- Herbicidal effect on E (rice flat sedge), foliage application (rice flat sedge; [23]): 1 (Herbicidal rate of 5% or more and less than 20%)
- herbicidal effect on false cleavers (Q) (false cleavers; 320 g/ha): 4 (Herbicidal rate of 70% or more and less than 90%)
- I: wild oat, herbicidal effect grade (wild oat [21]; [23]): 0 (Herbicidal rate of 5% or less (almost no effect))
